The text below walks through data of patent US9963463B2, “Urea-substituted indanes as P38 map kinase inhibitors” (TORRENT PHARMACEUTICALS LIMITED, priority 2014, dated 2018).

The assay deals with T1, purified recombinant human p38 alpha MAPK (Homo sapiens, UniProt Q16539).
T1 construct: purchased Millipore, USA
In words: Inhibition of p38 alpha MAPK activity, TR-FRET kinase assay. The class given is biochemical. Conditions: for inhibition at 1 µM / inhibition at 0.1 µM: read-out: P38α Inhibition; for inhibition at 0.1 µM: Concentration 100 nM. On the procedure:
Inhibition of p38 Alpha MAPK Activity: Time-Resolved Fluorescence Resonance Energy Transfer Kinase Standard Assay (TR-FRET Assay)
Compounds of present invention at various concentrations were premixed with DMSO. The experiment was initiated by mixing 0.5%-1.0% DMSO as vehicle/compounds with purified recombinant human p38 alpha MAPK (Millipore, USA) in the wells and 15 min incubation at room temperature. Thereafter, 30 nM of Biotinylated GST-ATF2 (Activation transcription Factor2) and 100 μM of ATP were added in to the wells containing reaction mixture, followed by reincubation for 60 minutes at RT. Reaction was terminated by addition of 10 mM of EDTA and detection reagent containing anti-phosphotheronine ATF2 antibody (PerkinElmer®, USA) labeled with europium chelate and APC (Allophycocyanin) labeled streptavidin, into the reaction mixture which was further incubated for 60 minutes at room temperature. The degree of phosphorylation of the substrate (GST-ATF2) was measured using Envision multimode reader (PerkinElmer®). Percentage inhibition of p38 kinase activity was calculated by determining ratio of specific europium 665 nm energy transfer signal to reference 615 nm signal.

T1 sequence (Q16539 whole entry): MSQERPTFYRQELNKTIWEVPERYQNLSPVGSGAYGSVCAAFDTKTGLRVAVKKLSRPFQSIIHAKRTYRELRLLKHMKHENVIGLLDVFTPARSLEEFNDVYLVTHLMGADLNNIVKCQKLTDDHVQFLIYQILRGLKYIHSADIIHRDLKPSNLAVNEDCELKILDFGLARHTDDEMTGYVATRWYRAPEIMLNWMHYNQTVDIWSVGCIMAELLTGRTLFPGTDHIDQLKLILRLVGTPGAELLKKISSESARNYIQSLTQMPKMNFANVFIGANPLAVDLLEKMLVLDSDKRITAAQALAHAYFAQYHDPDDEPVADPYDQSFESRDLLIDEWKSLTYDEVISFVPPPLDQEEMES

Take `CCCCOc1ccccc1-c1nnc2n1CCN(CCOc1ccc(NC(=O)Nc3cc(C(C)(C)C)nn3-c3ccc(C)cc3)c3c1CCC3)C2` [Compound 32, 1-(7-{2-[3-(2-butoxyphenyl)-5,6-dihydro[1,2,4]triazolo[4,3-a]pyrazin-7(8H)-yl]ethoxy}-2,3-dihydro-1H-inden-4-yl)-3-[3-tert-butyl-1-(4-methylphenyl)-1H-pyrazol-5-yl]urea]: the inhibition at 1 µM (Concentration 1 μM) is 80 to 100%.

Consider `CCCSc1ccccc1-c1nnc2n1CCN(CCOc1ccc(NC(=O)Nc3cc(C(C)(C)C)nn3-c3ccc(C)cc3)c3c1CCC3)C2` [Compound 33, 1-[3-tert-butyl-1-(4-methylphenyl)-1H-pyrazol-5-yl]-3-[7-(2-{3-[2-(propylsulfanyl)phenyl]-5,6-dihydro[1,2,4]triazolo[4,3-a]pyrazin-7(8H)-yl}ethoxy)-2,3-dihydro-1H-inden-4-yl]urea], for which the inhibition at 1 µM (Concentration 1 μM) is 80 to 100%.

On to `Cc1ccc(-n2nc(C(C)(C)C)cc2NC(=O)Nc2ccc(OCCN3CCn4c(nnc4-c4ccc(O)cc4)C3)c3c2CCC3)cc1` [Compound 34, 1-[3-tert-butyl-1-(4-methylphenyl)-1H-pyrazol-5-yl]-3-(7-{2-[3-(4-hydroxyphenyl)-5,6-dihydro[1,2,4]triazolo[4,3-a]pyrazin-7(8H)-yl]ethoxy}-2,3-dihydro-1H-inden-4-yl)urea], for which the inhibition at 1 µM (Concentration 1 μM) lay within 80 to 100%.

With `CCCSc1ccccc1-c1nnc2n1CCN(CCOc1ccc(NC(=O)Nc3cc(C(C)(C)C)nn3-c3ccc(O)c(Cl)c3)c3c1CCC3)C2` [Compound 35, 1-[3-tert-butyl-1-(3-chloro-4-hydroxyphenyl)-1H-pyrazol-5-yl]-3-[7-(2-{3-[2-(propylsulfanyl)phenyl]-5,6-dihydro[1,2,4]triazolo[4,3-a]pyrazin-7(8H)-yl}ethoxy)-2,3-dihydro-1H-inden-4-yl]urea], where the note is “Concentration 1 μM”, the inhibition at 1 µM lay within 80 to 100%.

On to `Cc1ccc(-n2nc(C(C)(C)C)cc2NC(=O)Nc2ccc(OCCN3CCn4c(nnc4-c4cccc(O)c4)C3)c3c2CCC3)cc1` [Compound 36, 1-[3-tert-butyl-1-(4-methylphenyl)-1H-pyrazol-5-yl]-3-(7-{2-[3-(3-hydroxyphenyl)-5,6-dihydro[1,2,4]triazolo[4,3-a]pyrazin-7(8H)-yl]ethoxy}-2,3-dihydro-1H-inden-4-yl)urea], for which the inhibition at 1 µM (Concentration 1 μM) was 80 to 100%.

Take `Cc1ccc(-n2nc(C(C)(C)C)cc2NC(=O)Nc2ccc(OCCN3CCn4c(nnc4-c4ccc(O)cc4O)C3)c3c2CCC3)cc1` [Compound 37, 1-[3-tert-butyl-1-(4-methylphenyl)-1H-pyrazol-5-yl]-3-(7-{2-[3-(2,4-dihydroxyphenyl)-5,6-dihydro[1,2,4]triazolo[4,3-a]pyrazin-7(8H)-yl]ethoxy}-2,3-dihydro-1H-inden-4-yl)urea]: the inhibition at 1 µM (Concentration 1 μM) lay in the range of 80 to 100%.

As for `Cc1ccc(-n2nc(C(C)(C)C)cc2NC(=O)Nc2ccc(OCCN3CCn4c(nnc4-c4cc(Cl)ccc4O)C3)c3c2CCC3)cc1` [Compound 38], the inhibition at 1 µM (Concentration 1 μM) was in the range of 80 to 100%.

Consider `COc1c(NC(=O)Nc2ccc(OCCN3CCN(CC4CC4)C(=O)C3)c3c2CCC3)cc(C(C)(C)C)cc1NS(C)(=O)=O` [Compound 39, N-(5-tert-butyl-3-{[(7-{2-[4-(cyclopropylmethyl)-3-oxopiperazin-1-yl]ethoxy}-2,3-dihydro-1H-inden-4-yl)carbamoyl]amino}-2-methoxyphenyl)methanesulfonamide], for which the inhibition at 1 µM (Concentration 1 μM) lay in the range of 80 to 100%.

In the case of `COc1c(NC(=O)Nc2ccc(OCCN3CCn4c(nnc4-c4ccccc4O)C3)c3c2CCC3)cc(C(C)(C)C)cc1NS(C)(=O)=O` [Compound 40, N-(5-tert-butyl-3-{[(7-{2-[3-(2-hydroxyphenyl)-5,6-dihydro[1,2,4]triazolo[4,3-a]pyrazin-7(8H)-yl]ethoxy}-2,3-dihydro-1H-inden-4-yl)carbamoyl]amino}-2-methoxyphenyl)methanesulfonamide], the inhibition at 1 µM (Concentration 1 μM) was in the range of 80 to 100%.

With `COc1c(NC(=O)Nc2ccc(OCCCN3CCN(CC4CC4)C(=O)C3)c3c2CCC3)cc(C(C)(C)C)cc1NS(C)(=O)=O` [Compound 41, N-(5-tert-butyl-3-{[(7-{3-[4-(cyclopropylmethyl)-3-oxopiperazin-1-yl]propoxy}-2,3-dihydro-1H-inden-4-yl)carbamoyl]amino}-2-methoxyphenyl) methanesulfonamide], the inhibition at 1 µM (Concentration 1 μM) is 60 to 80%.

With `CCCSc1ccccc1-c1nnc2n1CCN(CCOc1ccc(NC(=O)Nc3cc(C(C)(C)C)cc(NS(C)(=O)=O)c3OC)c3c1CCC3)C2` [Compound 42, N-[5-tert-butyl-2-methoxy-3-({[7-(2-{3-[2-(propylsulfanyl)phenyl]-5,6-dihydro[1,2,4]triazolo[4,3-a]pyrazin-7(8H)-yl}ethoxy)-2,3-dihydro-1H-inden-4-yl]carbamoyl}amino)phenyl]methanesulfonamide], where the note is “Concentration 1 μM”, the inhibition at 1 µM lay within 80 to 100%.

With `CCCCN1CCN(CCOc2ccc(NC(=O)Nc3cc(C(C)(C)C)cc(NS(C)(=O)=O)c3OC)c3c2CCC3)CC1=O` [Compound 44, N-{5-tert-butyl-3-[({7-[2-(4-butyl-3-oxopiperazin-1-yl)ethoxy]-2,3-dihydro-1H-inden-4-yl}carbamoyl)amino]-2-methoxyphenyl} methanesulfonamide], the inhibition at 1 µM (Concentration 1 μM) fell in the range of 80 to 100%.

Regarding `CCS(=O)(=O)Nc1cc(C(C)(C)C)cc(NC(=O)Nc2ccc(OCCN3CCn4c(nnc4-c4ccccc4SC)C3)c3c2CCC3)c1OC` [Compound 45, N-[5-tert-butyl-2-methoxy-3-({[7-(2-{3-[2-(methylsulfanyl)phenyl]-5,6-dihydro[1,2,4]triazolo[4,3-a]pyrazin-7(8H)-yl}ethoxy)-2,3-dihydro-1H-inden-4-yl]carbamoyl}amino)phenyl]ethanesulfonamide], the inhibition at 0.1 µM fell in the range of 80 to 100%.

For the compound `COc1c(NC(=O)Nc2ccc(OCCN3CCn4c(nnc4-c4cccc(O)c4)C3)c3c2CCC3)cc(C(C)(C)C)cc1NS(C)(=O)=O` [Compound 46, N-(5-tert-butyl-3-{[(7-{2-[3-(3-hydroxyphenyl)-5,6-dihydro[1,2,4]triazolo[4,3-a]pyrazin-7(8H)-yl]ethoxy}-2,3-dihydro-1H-inden-4-yl)carbamoyl]amino}-2-methoxyphenyl)methanesulfonamide], the inhibition at 0.1 µM fell in the range of 60 to 80%.

`COc1c(NC(=O)Nc2ccc(OCCN3CCn4c(nnc4-c4ccc(SCCO)cc4)C3)c3c2CCC3)cc(C(C)(C)C)cc1NS(C)(=O)=O` [Compound 47, N-(5-tert-butyl-3-{[(7-{2-[3-{4-[(2-hydroxyethyl)sulfanyl]phenyl}-5,6-dihydro[1,2,4]triazolo[4,3-a]pyrazin-7(8H)-yl]ethoxy}-2,3-dihydro-1H-inden-4-yl)carbamoyl]amino}-2-methoxyphenyl)methanesulfonamide]: the inhibition at 0.1 µM was 60 to 80%.

Take `COc1c(NC(=O)Nc2ccc(OCCN3CCn4c(nnc4-c4cc(Cl)ccc4O)C3)c3c2CCC3)cc(C(C)(C)C)cc1NS(C)(=O)=O` [Compound 48, N-(5-tert-butyl-3-{[(7-{2-[3-(5-chloro-2-hydroxyphenyl)-5,6-dihydro[1,2,4]triazolo[4,3-a]pyrazin-7(8H)-yl]ethoxy}-2,3-dihydro-1H-inden-4-yl)carbamoyl]amino}-2-methoxyphenyl)methanesulfonamide]: the inhibition at 1 µM (Concentration 1 μM) was 80 to 100%.

On to `CCS(=O)(=O)Nc1cc(C(C)(C)C)cc(NC(=O)Nc2ccc(OCCN3CCn4c(nnc4-c4ccc(O)cc4O)C3)c3c2CCC3)c1OC` [Compound 49, N-(5-tert-butyl-3-{[(7-{2-[3-(2,4-dihydroxyphenyl)-5,6-dihydro[1,2,4]triazolo[4,3-a]pyrazin-7(8H)-yl]ethoxy}-2,3-dihydro-1H-inden-4-yl)carbamoyl]amino}-2-methoxyphenyl)ethanesulfonamide], for which the inhibition at 1 µM (Concentration 1 μM) lay in the range of 80 to 100%.

For `CCCSc1ccccc1-c1nnc2n1CCN(CCOc1ccc(NC(=O)Nc3cc(C(C)(C)C)cc(NS(=O)(=O)CC)c3OC)c3c1CCC3)C2` [Compound 50, N-[5-tert-butyl-2-methoxy-3-({[7-(2-{3-[2-(propylsulfanyl)phenyl]-5,6-dihydro[1,2,4]triazolo[4,3-a]pyrazin-7(8H)-yl}ethoxy)-2,3-dihydro-lH-inden-4-yl]carbamoyl}amino)phenyl] ethanesulfonamide], the “P38α Inhibition” value (Concentration 1 μM) is on record as “+++++ (+++++ = Inhibition ≥80% ≥ 100%)”.

For the compound `CCS(=O)(=O)Nc1cc(C(C)(C)C)cc(NC(=O)Nc2ccc(OCCN3CCn4c(nnc4-c4cc(Cl)ccc4O)C3)c3c2CCC3)c1OC` [Compound 51, N-(5-tert-butyl-3-{[(7-{2-[3-(5-chloro-2-hydroxyphenyl)-5,6-dihydro[1,2,4]triazolo[4,3-a]pyrazin-7(8H)-yl]ethoxy}-2,3-dihydro-1H-inden-4-yl)carbamoyl]amino}-2-methoxyphenyl)ethanesulfonamide], under “Concentration 1 μM”, the inhibition at 1 µM lay in the range of 80 to 100%.

As to `CC(=O)Nc1cc2c(s1)CCN(C(=O)COc1ccc(NC(=O)Nc3cc(C(C)(C)C)nn3-c3ccc(C)cc3)c3c1CCC3)C2` [Compound 52, N-[5-({[7-({[3-tert-butyl-1-(4-methylphenyl)-1H-pyrazol-5-yl]carbamoyl}amino)-2,3-dihydro-1H-inden-4-yl]oxy}acetyl)-4,5,6,7-tetrahydrothieno[3,2-c]pyridin-2-yl] acetamide], the inhibition at 1 µM (Concentration 1 μM) lay within 60 to 80%.

Regarding `COc1ccc(-n2nc(C(C)(C)C)cc2NC(=O)Nc2ccc(OCC(=O)N3CCn4c(nnc4C(F)(F)F)C3)c3c2CCC3)cc1Cl` [Compound 53, 1-[3-tert-butyl-1-(3-chloro-4-methoxyphenyl)-1H-pyrazol-5-yl]-3-(7-{2-oxo-2-[3-(trifluoromethyl)-5,6-dihydro[1,2,4]triazolo[4,3-a]pyrazin-7(8H)-yl]ethoxy}-2,3-dihydro-1H-inden-4-yl)urea], the inhibition at 1 µM (Concentration 1 μM) was 40 to 60%.
